Measurements: patent US20250154138A1, “Small Molecule IL-17A Modulators” (BeiGene, Ltd., priority 2022, published 2025)

target: human IL-17A / human IL-17RA (Homo sapiens (Human), UniProt Q16552); assay: Human IL-17A biochemical assay (HTRF, blocking of IL-17A binding to IL-17RA); conditions: 0.4 nM IL-17A, 0.3 nM IL-17RA, max compound concentration 10 uM
Protocol: Compounds disclosed herein were tested for blocking of human IL-17A (Cat: C774, novoprotein) protein with its receptor human IL-17RA (Cat: C153, novoprotein) in an assay based on Homogeneous Time Resolved Fluorescence. 0.4 nM recombinant human IL-17A protein was pre-incubated with a serial dilution of compounds disclosed herein (maximum concentration is 10 uM, 2.7-fold serially diluted, 10 points) at room temperature for 3 hours in an assay buffer containing 20 mM HEPES, pH 7.5, 50 mM NaCl, 0.1% BSA, 0.2 mM DTT, 0.005% Tween 20. Then 0.3 nM recombinant human IL-17RA was added to plate and further incubated at room temperature for 1 hour. After that Mab Anti-6His Tb cryptate Gold (Cat: 61HI2TLB, Cisbio Bioassays) and MAb Anti Human IgG-XL665 (Cat: 61HFCXLB, Cisbio Bioassays) were added to plate and further incubated at room temperature for 1 hour. The HTRF signals (ex337 nm, em620 nm/665 nm) were read on BMG PHERAstar FSX instrument. The inhibition percentage of human IL-17A interaction with its receptor human IL-17RA in presence of increasing concentrations of compounds was calculated based on the ratio of […]. The IC50 for each compound was derived from fitting the data to the four-parameter logistic equation by Dotmatics.

Sequence of human IL-17A / human IL-17RA (Q16552 24-155): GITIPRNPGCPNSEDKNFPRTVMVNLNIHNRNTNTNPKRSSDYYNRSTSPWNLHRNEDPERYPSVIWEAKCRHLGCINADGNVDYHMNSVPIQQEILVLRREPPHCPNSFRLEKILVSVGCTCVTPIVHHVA

Compound	IC50 [nM]
CNC(=O)C1(N2C[C@@H](C(C)C)NC2=O)Cc2ccc(NC(=O)[C@@H](NC(=O)c3ccnn3C)C3CCOCC3)cc2C1 (stereo partly drawn) [Example 85, N-((1S)-2-((2-((R)-4-isopropyl-2-oxoimidazolidin-1-yl)-2-(methylcarbamoyl)-2,3-dihydro-1H-inden-5-yl)amino)-2-oxo-1-(tetrahydro-2H-pyran-4-yl)ethyl)-1-methyl-1H-pyrazole-5-carboxamide]	10100
CNC(=O)C1(N2CC(CC3CCCCC3)NC2=O)Cc2ccc(NC(=O)[C@@H](NC(=O)c3ccnn3C)C3CCCCC3)cc2C1 (stereo partly drawn) [Example 88, N-((1S)-1-cyclohexyl-2-((2-(4-(cyclohexylmethyl)-2-oxoimidazolidin-1-yl)-2-(methylcarbamoyl)-2,3-dihydro-1H-inden-5-yl)amino)-2-oxoethyl)-1-methyl-1H-pyrazole-5-carboxamide]	2060
CNC(=O)C1(N2CC(C3CCc4ccccc43)NC2=O)Cc2ccc(NC(=O)[C@@H](NC(=O)c3ccnn3C)C3CCCCC3)cc2C1 (stereo partly drawn) [Example 92, N-((1S)-1-cyclohexyl-2-((2-(4-(2,3-dihydro-1H-inden-1-yl)-2-oxoimidazolidin-1-yl)-2-(methylcarbamoyl)-2,3-dihydro-1H-inden-5-yl)amino)-2-oxoethyl)-1-methyl-1H-pyrazole-5-carboxamide]	3040
CNC(=O)C1(N2C[C@@H](C(C)C)NC2=O)Cc2ccc(NC(=O)[C@H](NC(=O)c3ccnn3C)C(C3CC3)C3CC3)cc2C1 (stereo partly drawn) [Example 93, N-((2R)-1,1-dicyclopropyl-3-((2-((R)-4-isopropyl-2-oxoimidazolidin-1-yl)-2-(methylcarbamoyl)-2,3-dihydro-1H-inden-5-yl)amino)-3-oxopropan-2-yl)-1-methyl-1H-pyrazole-5-carboxamide]	830
CNC(=O)C1(N2CCC(C)NC2=O)Cc2ccc(NC(=O)[C@@H](NC(=O)c3ccnn3C)C3CCCCC3)cc2C1 (stereo partly drawn) [Example 95, N-((1S)-1-cyclohexyl-2-((2-(4-methyl-2-oxotetrahydropyrimidin-1(2H)-yl)-2-(methylcarbamoyl)-2,3-dihydro-1H-inden-5-yl)amino)-2-oxoethyl)-1-methyl-1H-pyrazole-5-carboxamide]	4230
CNC(=O)C1(N2C[C@@H](CCc3ccccc3)NC2=O)Cc2ccc(NC(=O)[C@@H](NC(=O)c3ccnn3C)C3CCCCC3)cc2C1 (stereo partly drawn) [Example 96, N-((1S)-1-cyclohexyl-2-((2-(methylcarbamoyl)-2-((R)-2-oxo-4-phenethylimidazolidin-1-yl)-2,3-dihydro-1H-inden-5-yl)amino)-2-oxoethyl)-1-methyl-1H-pyrazole-5-carboxamide]	2320
CNC(=O)C1(N2C[C@@H](C(C)C)NC2=O)Cc2ccc(NC(=O)[C@@H](NC(=O)c3ccn(CCO)n3)C3CCCCC3)cc2C1 (stereo partly drawn) [Example 103, N-((1S)-1-cyclohexyl-2-((2-((R)-4-isopropyl-2-oxoimidazolidin-1-yl)-2-(methylcarbamoyl)-2,3-dihydro-1H-inden-5-yl)amino)-2-oxoethyl)-1-(2-hydroxyethyl)-1H-pyrazole-3-carboxamide]	2700
CNC(=O)C1(N2CC(C)(Cc3ccccc3)CNC2=O)Cc2ccc(NC(=O)[C@@H](NC(=O)c3ccnn3C)C3CCCCC3)cc2C1 (stereo partly drawn) [Example 109, N-((1S)-2-((2-(5-benzyl-5-methyl-2-oxotetrahydropyrimidin-1(2H)-yl)-2-(methylcarbamoyl)-2,3-dihydro-1H-inden-5-yl)amino)-1-cyclohexyl-2-oxoethyl)-1-methyl-1H-pyrazole-5-carboxamide]	3450
CNC(=O)C1(N2C[C@@H](C(C)C)NC2=O)Cc2ccc(NC(=O)C(Cc3cc(Cl)ccc3Cl)NC(=O)c3ccnn3C)cc2C1 (stereo partly drawn) [Example 127, N-(3-(2,5-dichlorophenyl)-1-((2-((R)-4-isopropyl-2-oxoimidazolidin-1-yl)-2-(methylcarbamoyl)-2,3-dihydro-1H-inden-5-yl)amino)-1-oxopropan-2-yl)-1-methyl-1H-pyrazole-5-carboxamide]	698
CNC(=O)C1(N2CC3(CC3)CNC2=O)Cc2ccc(NC(=O)[C@@H](NC(=O)c3ccn(C4CC(O)C4)n3)C3CCCCC3)cc2C1 (stereo partly drawn) [Example 133, N-((1S)-1-cyclohexyl-2-((2-(methylcarbamoyl)-2-(6-oxo-5,7-diazaspiro[2.5]octan-5-yl)-2,3-dihydro-1H-inden-5-yl)amino)-2-oxoethyl)-1-(3-hydroxycyclobutyl)-1H-pyrazole-3-carboxamide]	320
CNC(=O)C1(N2CCCNC2=O)Cc2ccc(NC(=O)[C@@H](NC(=O)c3ccnn3C)C3CCCCC3)cc2C1 (stereo partly drawn) [Example 134, N-((1S)-1-cyclohexyl-2-((2-(methylcarbamoyl)-2-(2-oxotetrahydropyrimidin-1(2H)-yl)-2,3-dihydro-1H-inden-5-yl)amino)-2-oxoethyl)-1-methyl-1H-pyrazole-5-carboxamide]	311
CNC(=O)C1(N2CC(Cc3ccc(C#N)cc3)NC2=O)Cc2ccc(NC(=O)[C@@H](NC(=O)c3ccnn3C)C3CCCCC3)cc2C1 (stereo partly drawn) [Example 140, N-((1S)-2-((2-(4-(4-cyanobenzyl)-2-oxoimidazolidin-1-yl)-2-(methylcarbamoyl)-2,3-dihydro-1H-inden-5-yl)amino)-1-cyclohexyl-2-oxoethyl)-1-methyl-1H-pyrazole-5-carboxamide]	277
CNC(=O)C1(N2CC3(CC3)CNC2=O)Cc2ccc(NC(=O)[C@@H](NC(=O)c3cnc4c(C#N)cccn34)C3CCCCC3)cc2C1 (stereo partly drawn) [Example 180, 8-cyano-N-((1S)-1-cyclohexyl-2-((2-(methylcarbamoyl)-2-(6-oxo-5,7-diazaspiro[2.5]octan-5-yl)-2,3-dihydro-1H-inden-5-yl)amino)-2-oxoethyl)imidazo[1,2-a]pyridine-3-carboxamide]	3680
Cc1nonc1C(=O)N[C@H](C(=O)Nc1ccc2c(c1)CC(C(=O)Nc1ccc(C(F)(F)F)c(Cl)c1)(N1C[C@@H](C(C)C)NC1=O)C2)C(C1CC1)C1CC1 (stereo partly drawn) [Example 260, N-((2S)-1-((2-((3-chloro-4-(trifluoromethyl)phenyl)carbamoyl)-2-((R)-4-isopropyl-2-oxoimidazolidin-1-yl)-2,3-dihydro-1H-inden-5-yl)amino)-3,3-dicyclopropyl-1-oxopropan-2-yl)-4-methyl-1,2,5-oxadiazole-3-carboxamide]	> 10000
Cc1nonc1C(=O)N[C@H](C(=O)Nc1ccc2c(c1)CC(C(=O)Nc1ccc(Cl)cc1Cl)(N1C[C@@H](C(C)C)NC1=O)C2)C(C1CC1)C1CC1 (stereo partly drawn) [Example 264, N-((2S)-1,1-dicyclopropyl-3-((2-((2,4-dichlorophenyl)carbamoyl)-2-((R)-4-isopropyl-2-oxoimidazolidin-1-yl)-2,3-dihydro-1H-inden-5-yl)amino)-3-oxopropan-2-yl)-4-methyl-1,2,5-oxadiazole-3-carboxamide]	2540
Cc1nonc1C(=O)N[C@H](C(=O)Nc1ccc2c(c1)CC(C(=O)Nc1cc(Cl)cc(Cl)c1)(N1C[C@@H](C(C)C)NC1=O)C2)C(C1CC1)C1CC1 (stereo partly drawn) [Example 265, N-((2S)-1,1-dicyclopropyl-3-((2-((3,5-dichlorophenyl)carbamoyl)-2-((R)-4-isopropyl-2-oxoimidazolidin-1-yl)-2,3-dihydro-1H-inden-5-yl)amino)-3-oxopropan-2-yl)-4-methyl-1,2,5-oxadiazole-3-carboxamide]	8070
Cc1nonc1C(=O)N[C@H](C(=O)Nc1ccc2c(c1)CC(C(=O)Nc1ccc(C3CC3)cc1Cl)(N1C[C@@H](C(C)C)NC1=O)C2)C(C1CC1)C1CC1 (stereo partly drawn) [Example 267, N-((2S)-1-((2-((2-chloro-4-cyclopropylphenyl)carbamoyl)-2-((R)-4-isopropyl-2-oxoimidazolidin-1-yl)-2,3-dihydro-1H-inden-5-yl)amino)-3,3-dicyclopropyl-1-oxopropan-2-yl)-4-methyl-1,2,5-oxadiazole-3-carboxamide]	> 10000
Cc1nonc1C(=O)N[C@H](C(=O)Nc1ccc2c(c1)CC(CN1C[C@@H](C(F)(F)F)NC1=O)O2)C(C1CC1)C1CC1 (stereo partly drawn) [Example 293, N-((2S)-1,1-dicyclopropyl-3-oxo-3-((2-(((S)-2-oxo-4-(trifluoromethyl)imidazolidin-1-yl)methyl)-2,3-dihydrobenzofuran-5-yl)amino)propan-2-yl)-4-methyl-1,2,5-oxadiazole-3-carboxamide]	> 10000
